From EP4806891A1 (Kangbaida (Sichuan) Biotechnology Co., Ltd., priority 2023, dated 2025)

Target: T1, HEK-Blue-hTLR8 cells (Homo sapiens, UniProt Q9NR97)
T1 construct: expressed in transfected cells; host or cells: HEK-Blue-hTLR8 cells (HEK293-derived reporter line)
T1 sequence (Q9NR97 27-1041): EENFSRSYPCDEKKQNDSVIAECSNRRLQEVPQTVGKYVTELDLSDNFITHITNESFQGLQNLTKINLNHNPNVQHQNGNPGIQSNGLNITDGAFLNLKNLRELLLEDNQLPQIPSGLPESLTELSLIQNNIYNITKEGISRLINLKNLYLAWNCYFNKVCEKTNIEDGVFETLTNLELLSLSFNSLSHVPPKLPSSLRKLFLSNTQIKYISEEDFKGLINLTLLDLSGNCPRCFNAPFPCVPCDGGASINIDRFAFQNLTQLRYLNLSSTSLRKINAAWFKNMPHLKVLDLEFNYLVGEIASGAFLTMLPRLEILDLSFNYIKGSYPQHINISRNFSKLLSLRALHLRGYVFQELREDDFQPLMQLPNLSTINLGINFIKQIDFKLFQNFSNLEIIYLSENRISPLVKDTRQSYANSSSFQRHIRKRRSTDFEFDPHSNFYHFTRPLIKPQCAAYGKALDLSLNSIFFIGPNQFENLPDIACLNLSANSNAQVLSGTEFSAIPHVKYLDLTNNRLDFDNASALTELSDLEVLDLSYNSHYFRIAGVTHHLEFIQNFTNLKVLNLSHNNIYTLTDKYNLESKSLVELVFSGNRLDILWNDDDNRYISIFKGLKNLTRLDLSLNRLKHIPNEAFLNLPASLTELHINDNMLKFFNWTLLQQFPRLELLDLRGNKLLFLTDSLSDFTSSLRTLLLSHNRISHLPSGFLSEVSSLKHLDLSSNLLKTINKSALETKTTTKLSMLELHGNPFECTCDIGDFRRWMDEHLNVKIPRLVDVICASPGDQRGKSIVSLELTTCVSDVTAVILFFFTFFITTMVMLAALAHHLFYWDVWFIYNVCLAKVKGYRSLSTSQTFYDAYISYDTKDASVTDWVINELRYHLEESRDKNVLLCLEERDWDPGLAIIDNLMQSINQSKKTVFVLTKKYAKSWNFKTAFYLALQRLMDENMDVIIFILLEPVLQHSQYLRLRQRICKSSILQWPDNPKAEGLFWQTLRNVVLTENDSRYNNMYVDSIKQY
Test: HEK-Blue-hTLR8 cell inhibition assay
Assay type: cell-based
Conditions: R848 3 µM, 16 h, OD 620 nm, read-out: TLR8 IC50
Outline: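 Cells were pre-incubated 4 h, then co-treated 16 h at 37 °C with compound (10 doses, 0.5–10000 nM final) plus R848 (0.8 µM for TLR7, 3 µM for TLR8) or ODN2006 (1 µM, TLR9). Reporter OD620 gave inhibition relative to DMSO blank and agonist-only controls; IC50 came from curve fitting.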

Row | SMILES | IC50 [nM]
1 | CN1CCC(c2nnc([C@]34CN(c5ccc(C#N)n6ncc(Br)c56)C[C@@]3(C(F)(F)F)C4)o2)CC1 [Compound 83, 3-bromo-4-((1S,5R)-1-(5-(1-methylpiperidin-4-yl)-1,3,4-oxadiazol-2-yl)-5-(trifluoromethyl)-3-azabicyclo[3.1.0]hexan-3-yl)pyrazolo[1,5-a]pyridine-7-carbonitrile] | > 1000
2 | N#Cc1ccc(N2C[C@]3(c4nnc(CC5CNC5)o4)C[C@]3(C(F)(F)F)C2)c2cccnc12 [Compound 35, 5-((1S,5R)-1-(5-(azetidin-3-ylmethyl)-1,3,4-oxadiazol-2-yl)-5-(trifluoromethyl)-3-azabicyclo[3.1.0]hexan-3-yl)quinoline-8-carbonitrile] | < 1000
3 | CN(C)CC#Cc1nnc([C@]23CN(c4ccc(C#N)c5ncccc45)C[C@@]2(C(F)(F)F)C3)o1 [Compound 25, 5-((1S,5R)-1-(5-(3-(dimethylamino)prop-1-yn-1-yl)-1,3,4-oxadiazol-2-yl)-5-(trifluoromethyl)-3-azabicyclo[3.1.0]hexan-3-yl)quinoline-8-carbonitrile] | < 100
4 | CC1(C)CC(Cc2nnc([C@]34CN(c5ccc(C#N)c6ncccc56)C[C@@]3(C(F)(F)F)C4)o2)CC(C)(C)N1 [Compound 26, 5-((1S,5R)-1-(5-((2,2,6,6-tetramethylpiperidin-4-yl)methyl)-1,3,4-oxadiazol-2-yl)-5-(trifluoromethyl)-3-azabicyclo[3.1.0]hexan-3-yl)quinoline-8-carbonitrile] | < 100
5 | CN(C)CCc1nnc([C@]23CN(c4ccc(C#N)c5ncccc45)C[C@@]2(C(F)(F)F)C3)o1 [Compound 51, 5-((1S,5R)-1-(5-(2-(dimethylamino)ethyl)-1,3,4-oxadiazol-2-yl)-5-(trifluoromethyl)-3-azabicyclo[3.1.0]hexan-3-yl)quinoline-8-carbonitrile] | < 100
6 | CN1CCC(c2nnc([C@]34CN(c5ccc(C#N)c6ncccc56)C[C@@]3(C(F)(F)F)C4)[nH]2)CC1 [Compound 9, 5-((1S,5R)-1-(5-(1-methylpiperidin-4-yl)-4H-1,2,4-triazol-3-yl)-5-(trifluoromethyl)-3-azabicyclo[3.1.0]hexan-3-yl)quinoline-8-carbonitrile] | < 100
7 | CN1CCC(Oc2nnc([C@]34CN(c5ccc(OC(F)(F)F)c6ncccc56)C[C@@]3(C(F)(F)F)C4)o2)CC1 [Compound 93, 2-((1-methylpiperidin-4-yl)oxy)-5-((1S,5R)-5-(trifluoromethyl)-3-(8-(trifluoromethoxy)quinolin-5-yl)-3-azabicyclo[3.1.0]hexan-1-yl)-1,3,4-oxadiazole] | < 100
8 | CN1CCC(Cc2nnc([C@]34CN(c5ccc(C#N)c6ncccc56)C[C@@]3(C(F)(F)F)C4)o2)CC1 [Compound 37, 5-((1S,5R)-1-(5-((1-methylpiperidin-4-yl)methyl)-1,3,4-oxadiazol-2-yl)-5-(trifluoromethyl)-3-azabicyclo[3.1.0]hexan-3-yl)quinoline-8-carbonitrile] | < 100
9 | N#Cc1ccc(N2C[C@]3(c4nnc(N)o4)C[C@]3(C(F)(F)F)C2)c2cccnc12 [Compound 7, 5-((1S,5R)-1-(5-amino-1,3,4-oxadiazol-2-yl)-5-(trifluoromethyl)-3-azabicyclo[3.1.0]hexan-3-yl)quinoline-8-carbonitrile] | < 100
10 | CN1CCC(c2nnc([C@]34CN(c5ccc(C#N)c6ncccc56)C[C@@]3(C(F)(F)F)C4)o2)CC1=O (some centres unmarked) [Compound 34] | < 1000
11 | CN1CCC(c2nnc([C@]34CN(c5ccc(C#N)c6ncnn56)C[C@@]3(C(F)(F)F)C4)o2)CC1 [Compound 91, 5-((1S,5R)-1-(5-(1-methylpiperidin-4-yl)-1,3,4-oxadiazol-2-yl)-5-(trifluoromethyl)-3-azabicyclo[3.1.0]hexan-3-yl)-[1,2,4]triazolo[1,5-a]pyridine-8-carbonitrile] | < 100
12 | N#Cc1ccc(N2C[C@]3(c4nnc(C56CCC(N)(CC5)CC6)o4)C[C@]3(C(F)(F)F)C2)c2cccnc12 [Compound 52, 5-((1S,5R)-1-(5-(4-aminobicyclo[2.2.2]octan-1-yl)-1,3,4-oxadiazol-2-yl)-5-(trifluoromethyl)-3-azabicyclo[3.1.0]hexan-3-yl)quinoline-8-carbonitrile] | < 100
13 | N#Cc1ccc(N2C[C@]3(c4nnc(C56CCC(NC(=O)[C@@H]7COCCN7)(CC5)CC6)o4)C[C@]3(C(F)(F)F)C2)c2cccnc12 [Compound 54, (S)-N-(4-(5-((1S,5R)-3-(8-cyanoquinolin-5-yl)-5-(trifluoromethyl)-3-azabicyclo[3.1.0]hexan-1-yl)-1,3,4-oxadiazol-2-yl)bicyclo[2.2.2]octan-1-yl)morpholine-3-carboxamide] | < 100
14 | CN1CC2(CC(c3nnc([C@]45CN(c6ccc(C#N)c7ncccc67)C[C@@]4(C(F)(F)F)C5)o3)C2)C1 [Compound 19, 5-((1S,5R)-1-(5-(2-methyl-2-azaspiro[3.3]heptan-6-yl)-1,3,4-oxadiazol-2-yl)-5-(trifluoromethyl)-3-azabicyclo[3.1.0]hexan-3-yl)quinoline-8-carbonitrile] | < 100
15 | N#Cc1ccc(N2C[C@]3(c4nnc(CN5CCOCC5)o4)C[C@]3(C(F)(F)F)C2)c2cccnc12 [Compound 40, 5-((1S,5R)-1-(5-(morpholinomethyl)-1,3,4-oxadiazol-2-yl)-5-(trifluoromethyl)-3-azabicyclo[3.1.0]hexan-3-yl)quinoline-8-carbonitrile] | < 1000
16 | N#Cc1ccc(N2C[C@]3(c4nnc(N5CCOCC5)o4)C[C@]3(C(F)(F)F)C2)c2cccnc12 [Compound 27, 5-((1S,5R)-1-(5-morpholino-1,3,4-oxadiazol-2-yl)-5-(trifluoromethyl)-3-azabicyclo[3.1.0]hexan-3-yl)quinoline-8-carbonitrile] | < 1000
17 | CN1CCC(n2cnc([C@]34CN(c5ccc(C#N)c6ncccc56)C[C@@]3(C(F)(F)F)C4)n2)CC1 [Compound 23, 5-((1S,5R)-1-(1-(1-methylpiperidin-4-yl)-1H-1,2,4-triazol-3-yl)-5-(trifluoromethyl)-3-azabicyclo[3.1.0]hexan-3-yl)quinoline-8-carbonitrile] | < 100
18 | CN1CCC(c2nnc([C@]34CN(c5ccc(C(F)(F)F)n6nccc56)C[C@@]3(C(F)(F)F)C4)o2)CC1 [Compound 87, 2-(1-methylpiperidin-4-yl)-5-((1S,5R)-5-(trifluoromethyl)-3-(7-(trifluoromethyl)pyrazolo[1,5-a]pyridin-4-yl)-3-azabicyclo[3.1.0]hexan-1-yl)-1,3,4-oxadiazole] | < 1000
19 | CN1CC(Cc2nnc([C@]34CN(c5ccc(C#N)c6ncccc56)C[C@@]3(C(F)(F)F)C4)o2)C1 [Compound 36, 5-((1S,5R)-1-(5-((1-methylazetidin-3-yl)methyl)-1,3,4-oxadiazol-2-yl)-5-(trifluoromethyl)-3-azabicyclo[3.1.0]hexan-3-yl)quinoline-8-carbonitrile] | < 100
20 | FC(F)(F)Oc1ccc(N2C[C@]3(c4nnc(C5(F)CCNCC5)o4)C[C@]3(C(F)(F)F)C2)c2cccnc12 [Compound 96, 2-(4-fluoropiperidin-4-yl)-5-((1S,5R)-3-(8-(trifluoromethoxy)quinolin-5-yl)-5-(trifluoromethyl)-3-azabicyclo[3.1.0]hexan-1-yl)-1,3,4-oxadiazole] | < 100
21 | N#Cc1ccc(N2C[C@]3(c4nnc(C5(F)CCNCC5)o4)C[C@]3(C(F)(F)F)C2)c2cccnc12 [Compound 60, 5-((1S,5R)-1-(5-(4-fluoropiperidin-4-yl)-1,3,4-oxadiazol-2-yl)-5-(trifluoromethyl)-3-azabicyclo[3.1.0]hexan-3-yl)quinoline-8-carbonitrile] | < 100
22 | CN1CCC(O)(c2nnc([C@]34CN(c5ccc(C(F)(F)F)c6ncccc56)C[C@@]3(C(F)(F)F)C4)o2)CC1 [Compound 94, 1-methyl-4-(5-((1S,5R)-5-(trifluoromethyl)-3-(8-(trifluoromethyl)quinolin-5-yl)-3-azabicyclo[3.1.0]hexan-1-yl)-1,3,4-oxadiazol-2-yl)piperidin-4-ol] | < 100
23 | CN1CC2CC1CC2c1nnc([C@]23CN(c4ccc(C#N)c5ncccc45)C[C@@]2(C(F)(F)F)C3)o1 (stereo partly drawn) [Compound 14, 5-((1S,5R)-1-(5-(2-methyl-2-azabicyclo[2.2.1]heptan-5-yl)-1,3,4-oxadiazol-2-yl)-5-(trifluoromethyl)-3-azabicyclo[3.1.0]hexan-3-yl)quinoline-8-carbonitrile] | < 100
